pIC50: −log10 of the molar value.
How the values were obtained:
Assay type in all cases: cell-based
[1] = system: SKOV3 human ovarian carcinoma cell line; test: 96 h growth inhibition, sulforhodamine B assay, SKOV3; settings: 96 h exposure, v = variable (mean)
T. cruzi (MHOM/BR/00/Y) = test: Trypanosoma cruzi in mouse peritoneal macrophages
Experimental: Trypanosoma cruzi: […] Drug activity was determined from the % of infected macrophages in treated cultures. Nifurtimox was used as the positive control.

[2] = system: CH1 human ovarian carcinoma cell line; test: 96 h growth inhibition, sulforhodamine B assay, CH1; settings: 96 h exposure, v = variable (mean)
[3] = system: A2780cis^R human ovarian carcinoma cell line (cisplatin resistant); test: 96 h growth inhibition, sulforhodamine B assay, A2780cisR; settings: for pIC50: 96 h exposure, growth inhibition, v = variable (mean); for RF resistance factor: IC50 resistant line/IC50 parent line: A2780cis^R / A2780
[4] = system: CH1cis^R human ovarian carcinoma cell line (cisplatin resistant); test: 96 h growth inhibition, sulforhodamine B assay, CH1cisR; settings: for pIC50: 96 h exposure, growth inhibition, v = variable (mean); for RF resistance factor: IC50 resistant line/IC50 parent line: CH1cis^R / CH1
[5] = system: T. brucei (S427) bloodstream trypomastigotes; test: Trypanosoma brucei bloodstream trypomastigote culture
[6] = system: CH1dox^R human ovarian carcinoma cell line (doxorubicin resistant); test: 96 h growth inhibition, sulforhodamine B assay, CH1doxR; settings: for pIC50: 96 h exposure, growth inhibition; for RF resistance factor: IC50 resistant line/IC50 parent line: CH1dox^R / CH1
[7] = system: A2780 human ovarian carcinoma cell line; test: 96 h growth inhibition, sulforhodamine B assay, A2780; settings: 96 h exposure, v = variable (mean)

| Structure (SMILES) | pIC50 [1] | % Inhibition, Trypanosoma cruzi (T. cruzi (MHOM/BR/00/Y); 1 μM) [%] | % Inhibition, Trypanosoma cruzi (T. cruzi (MHOM/BR/00/Y); 3 μM) [%] | % Inhibition, Trypanosoma cruzi (T. cruzi (MHOM/BR/00/Y); 10 μM) [%] | pIC50 [2] | pIC50 [3] | pIC50 [4] | RF resistance factor: IC50 resistant line/IC50 parent line [4] | % Inhibition, Trypanosoma brucei ([5]; 1 μM) [%] | % Inhibition, Trypanosoma brucei ([5]; 3 μM) [%] | % Inhibition, Trypanosoma brucei ([5]; 10 μM) [%] | % Inhibition, Trypanosoma brucei ([5]; 30 μM) [%] | pIC50 [6] | RF resistance factor: IC50 resistant line/IC50 parent line [6] | pIC50 [7] | RF resistance factor: IC50 resistant line/IC50 parent line [3] | % Inhibition, Trypanosoma brucei ([5]; 0.1 μM) [%] | % Inhibition, Trypanosoma brucei ([5]; 0.3 μM) [%] | % Inhibition, Trypanosoma cruzi (T. cruzi (MHOM/BR/00/Y); 30 μM) [%] |
| --- | --- | --- | --- | --- | --- | --- | --- | --- | --- | --- | --- | --- | --- | --- | --- | --- | --- | --- | --- |
| F[B-](F)(F)F.F[B-](F)(F)F.Fc1cccc[n+]1[Pt-2]12[n+]3ccccc3-c3cccc([n+]31)-c1cccc[n+]12 [Compound A4] | < 4.00 | 3.0 | 6.0 | 93 | 4.81 | < 4.00 | 4.85 | 0.9 | 100 | 100 | 100 | 100 | 5.27 | 0.3 | 4.67 | – | – | – | – |
| F[B-](F)(F)F.F[B-](F)(F)F.Fc1ccc[n+]([Pt-2]23[n+]4ccccc4-c4cccc([n+]42)-c2cccc[n+]23)c1 [Compound A5] | < 4.00 | 2.0 | 6.5 | 43.8 | 4.77 | < 4.00 | 4.77 | 1 | 100 | 100 | 100 | 100 | 5.21 | 0.3 | 4.71 | – | – | – | – |
| F[B-](F)(F)F.F[B-](F)(F)F.c1cc[n+]2c(c1)-c1cccc3[n+]1[Pt-2]2([n+]1ccsc1)[n+]1ccccc1-3 [Compound A6] | < 4.00 | 0 | 0 | 5.0 | 4.77 | < 4.00 | 4.77 | 1 | 100 | 100 | 100 | 100 | 5.20 | 0.4 | 4.73 | 1 | 75.4 | 100 | – |
| CC#[N+][Pt-2]12[n+]3ccccc3-c3cccc([n+]31)-c1cccc[n+]12.F[B-](F)(F)F.F[B-](F)(F)F [Compound A8] | < 4.00 | 0 | 0 | 4.0 | 4.74 | 4.00 | 4.73 | 1 | 100 | 100 | 100 | 100 | 4.89 | 0.7 | 4.30 | 2 | – | – | 38.0 |
| F[B-](F)(F)F.F[B-](F)(F)F.[NH3+][Pt-2]12[n+]3ccccc3-c3cccc([n+]31)-c1cccc[n+]12 [Compound A12] | 4.82 | 72.3 | 100 | 100 | 5.28 | 4.63 | 5.35 | 0.9 | 100 | 100 | 100 | 100 | 5.43 | 0.7 | 4.94 | 2 | 83.8 | 98.5 | 100 |
| Cc1ccncc1.F[B-](F)(F)F.F[B-](F)(F)F.NNc1cc(-c2ccccn2)nc(-c2ccccn2)c1.[Pt+2] [R, (4-Picoline)(4′-Hydrazino-2,2′:6′,2″-Terpyridine) Platinum (II) Tetrafluoroborate] | 4.10 | 60.8 | 57.7 | 65.8 | 4.80 | 4.05 | 4.87 | 0.8 | 100 | 100 | 100 | 100 | 5.28 | 0.3 | 4.41 | 2.3 | 4.9 | 29.6 | 60.1 |
| CN(N)c1cc(-c2ccccn2)nc(-c2ccccn2)c1.Cc1ccncc1.F[B-](F)(F)F.F[B-](F)(F)F.[Pt+2] [S, (4-Picoline)(4′-(1 -Methylhydrazino)-2,2′:6′,2″-Terpyridine) Platinum (II) Tetra-fluoroborate] | < 4.00 | 60.9 | 53.3 | 53.3 | 4.19 | 4.21 | < 4.00 | – | 44.4 | 98.3 | 100 | 100 | 4.84 | 0.2 | 4.74 | 3.4 | 0 | 22.5 | 334 |
| Cc1ccncc1.Cc1ccncc1.F[B-](F)(F)F.F[B-](F)(F)F.F[B-](F)(F)F.F[B-](F)(F)F.O=C(CCCCC(=O)NNc1cc(-c2ccccn2)nc(-c2ccccn2)c1)NNc1cc(-c2ccccn2)nc(-c2ccccn2)c1.[Pt+2].[Pt+2] [V, Adipoyl-Linked-Bis[4-Picoline(4′-Hydrazino-2,2′:6′,2″-Terpyridine) Platinum(II)] Tetrafluoroborate] | 4.01 | 0 | 0 | 0 | 4.32 | 4.40 | 4.38 | 0.9 | 0 | 100 | 100 | 100 | 4.40 | 0.8 | 4.72 | 2.1 | 0 | 0 | 0 |

Source: US20020013306A1, “TERPYRIDINE-PLATINUM(II) COMPLEXES” (priority 1996, published 2002)
